Test results: ChEMBL document CHEMBL1949642 (Bioorg Med Chem Lett, 2012)

Experiments:
[1] = Intrinsic clearance in human liver microsomes
[2] = molecular target: C-C chemokine receptor type 5 (Homo sapiens, UniProt P51681); assay: Displacement of [125I]MIP-1alpha from human recombinant CCR5 expressed in CHO cells; assay type: cell-based
[3] = Lipophilicity, log D of the compound at pH 7.4; details: buffer
[4] = molecular target: Voltage-gated inwardly rectifying potassium channel KCNH2 (Homo sapiens, UniProt Q12809); assay: Displacement of 3,7-Bis[2-(4-nitro[3,5-3H]phenyl)ethyl]-3,7-diazabicyclo[3.3.1]nonane from human ERG expressed in HEK cells after 3 hrs
[5] = Clearance in rat at 1 to 2 mg/kg, iv; assay type: ADME, organism-based; set-up: dose 1-2 mg/kg, route intravenous; details: in vivo
[6] = Volume of distribution at steady state in female dog at 1 to 2 mg/kg, iv; assay type: ADME, organism-based, Canis lupus familiaris; set-up: dose 1-2 mg/kg, route intravenous; details: in vivo, read-out: Vdss
[7] = Volume of distribution at steady state in male dog at 1 to 2 mg/kg, iv; assay type: ADME, organism-based, Canis lupus familiaris; set-up: dose 1-2 mg/kg, route intravenous; details: in vivo, read-out: Vdss
[8] = Oral bioavailability in male dog at 2 to 5 mg/kg; assay type: ADME, organism-based, Canis lupus familiaris; details: in vivo
[9] = Half life in rat at 1 to 2 mg/kg, iv; assay type: ADME, organism-based; set-up: dose 1-2 mg/kg, route intravenous; details: in vivo
[10] = Volume of distribution at steady state in rat at 1 to 2 mg/kg, iv; assay type: ADME, organism-based; set-up: dose 1-2 mg/kg, route intravenous; details: in vivo, read-out: Vdss
[11] = Oral bioavailability in female dog at 2 to 5 mg/kg; assay type: ADME, organism-based, Canis lupus familiaris; details: in vivo
[12] = Clearance in female dog at 1 to 2 mg/kg, iv; assay type: ADME, organism-based, Canis lupus familiaris; set-up: dose 1-2 mg/kg, route intravenous; details: in vivo
[13] = Clearance in male dog at 1 to 2 mg/kg, iv; assay type: ADME, organism-based, Canis lupus familiaris; set-up: dose 1-2 mg/kg, route intravenous; details: in vivo
[14] = Half life in male dog at 1 to 2 mg/kg, iv; assay type: ADME, organism-based, Canis lupus familiaris; set-up: dose 1-2 mg/kg, route intravenous; details: in vivo
[15] = Oral bioavailability in rat at 2 to 5 mg/kg; assay type: ADME, organism-based; details: in vivo
[16] = Half life in female dog at 1 to 2 mg/kg, iv; assay type: ADME, organism-based, Canis lupus familiaris; set-up: dose 1-2 mg/kg, route intravenous; details: in vivo

Chain of C-C chemokine receptor type 5 (P51681 whole entry): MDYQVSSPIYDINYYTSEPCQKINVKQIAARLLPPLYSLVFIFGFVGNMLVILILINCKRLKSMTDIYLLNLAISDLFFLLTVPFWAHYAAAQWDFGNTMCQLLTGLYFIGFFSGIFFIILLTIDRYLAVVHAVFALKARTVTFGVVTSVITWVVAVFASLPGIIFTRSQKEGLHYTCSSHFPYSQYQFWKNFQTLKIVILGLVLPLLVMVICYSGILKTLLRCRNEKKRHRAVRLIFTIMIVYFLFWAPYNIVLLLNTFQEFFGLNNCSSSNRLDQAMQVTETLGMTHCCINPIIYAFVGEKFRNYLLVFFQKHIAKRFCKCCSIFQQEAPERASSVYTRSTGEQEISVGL
Chain of Voltage-gated inwardly rectifying potassium channel KCNH2 (Q12809 whole entry): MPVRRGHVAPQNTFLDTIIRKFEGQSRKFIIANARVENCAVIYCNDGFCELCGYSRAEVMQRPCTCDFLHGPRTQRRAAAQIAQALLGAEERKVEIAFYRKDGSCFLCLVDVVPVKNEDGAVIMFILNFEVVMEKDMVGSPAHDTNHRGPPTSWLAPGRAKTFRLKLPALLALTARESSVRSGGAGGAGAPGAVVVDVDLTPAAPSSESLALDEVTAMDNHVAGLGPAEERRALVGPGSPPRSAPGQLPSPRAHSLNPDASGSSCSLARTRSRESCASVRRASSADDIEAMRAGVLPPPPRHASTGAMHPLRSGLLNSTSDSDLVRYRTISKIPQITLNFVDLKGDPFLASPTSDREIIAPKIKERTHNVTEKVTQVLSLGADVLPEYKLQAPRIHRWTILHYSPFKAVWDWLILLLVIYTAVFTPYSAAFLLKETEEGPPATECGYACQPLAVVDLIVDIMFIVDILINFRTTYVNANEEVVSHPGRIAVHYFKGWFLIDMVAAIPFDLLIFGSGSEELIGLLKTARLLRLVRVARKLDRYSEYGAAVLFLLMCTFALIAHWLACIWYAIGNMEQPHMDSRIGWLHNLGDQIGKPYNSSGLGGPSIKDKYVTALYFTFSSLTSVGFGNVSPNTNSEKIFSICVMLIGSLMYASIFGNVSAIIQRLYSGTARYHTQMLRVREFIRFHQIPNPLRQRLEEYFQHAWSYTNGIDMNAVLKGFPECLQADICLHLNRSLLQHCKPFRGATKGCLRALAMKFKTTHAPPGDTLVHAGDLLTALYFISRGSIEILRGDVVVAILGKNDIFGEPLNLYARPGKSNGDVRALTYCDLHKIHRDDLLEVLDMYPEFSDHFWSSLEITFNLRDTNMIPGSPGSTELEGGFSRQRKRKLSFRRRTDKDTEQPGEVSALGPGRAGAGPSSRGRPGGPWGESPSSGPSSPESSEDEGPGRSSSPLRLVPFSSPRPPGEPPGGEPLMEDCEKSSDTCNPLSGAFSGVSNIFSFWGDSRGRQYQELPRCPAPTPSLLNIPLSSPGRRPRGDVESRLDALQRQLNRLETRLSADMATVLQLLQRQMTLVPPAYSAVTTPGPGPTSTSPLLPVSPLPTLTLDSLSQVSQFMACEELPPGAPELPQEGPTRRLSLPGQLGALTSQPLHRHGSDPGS

microsomal CLint ([1]; liver microsomes) [µL/min/mg]	IC50 [2] [nM]	logD [3]	Structure (SMILES)	IC50 [4] [nM]	other results
28	5.4	2.2	CCN(C(=O)Cc1ccc(S(C)(=O)=O)cc1)C1CCN(CCC(c2ccccc2)C2CCN(S(=O)(=O)CC(F)(F)F)CC2)CC1 (stereo not given)		
33	1.6		CCN(C(=O)Cc1ccc(S(C)(=O)=O)cc1)C1CCN(CC[C@@H](c2ccccc2)N2CCN(S(=O)(=O)C(F)(F)F)CC2)CC1	3200	
47	8.9	1.8	CCN(C(=O)Cc1ccc(S(C)(=O)=O)cc1)C1CCN(CC[C@@H](c2ccccc2)N2CCN(S(=O)(=O)CC(F)(F)F)CC2)CC1	5800	
31	1.1	1.1	CCN(C(=O)Cc1ccc(S(C)(=O)=O)cc1)C1CCN(CC[C@@H](c2ccccc2)C2CCN(S(C)(=O)=O)CC2)CC1	25000	
28	< 0.1	3.4	CCN(C(=O)Cc1ccc(S(C)(=O)=O)cc1)C1CCN(CC[C@@H](c2ccccc2)C2CCN(S(=O)(=O)C(F)(F)F)CC2)CC1	1200	
	3.7	1.2	CCN(C(=O)Cc1ccc(S(C)(=O)=O)cc1)C1CCN(CC[C@@H](c2cc(F)cc(F)c2)N2CCN(S(C)(=O)=O)CC2)CC1	> 32000	clearance [5]: 71 mL/min/kg; microsomal CLint ([1]; microsomes): 8 µL/min/mg; Vd [6]: 2.2 L/kg; Vd [7]: 3.2 L/kg; bioavailability [8]: 15%; half-life [9]: 2.4 h; Vd [10]: 7.7 L/kg; bioavailability [11]: 22%; clearance [12]: 7.5 mL/min/kg; clearance [13]: 12 mL/min/kg; half-life [14]: 8.3 h; bioavailability [15]: 7.3%; half-life [16]: 4.7 h
	794	0.6	CCN(C(=O)Cc1ccc(S(C)(=O)=O)cc1)C1CCN(CC[C@@H](c2cccc(S(C)(=O)=O)c2)C2CCN(S(C)(=O)=O)CC2)CC1		
45	5	1.2	CCN(C(=O)Cc1ccc(S(C)(=O)=O)cc1)C1CCN(CC[C@@H](c2cccc(OC)c2)C2CCN(S(C)(=O)=O)CC2)CC1	32000	
18			CCN(C(=O)Cc1ccc(S(C)(=O)=O)cc1)C1CCN(CC[C@@H](c2cccc(F)c2)C2CCN(S(C)(=O)=O)CC2)CC1		
104	0.44	1.5	CCN(C(=O)Cc1ccc(S(C)(=O)=O)cc1)C1CCN(CC[C@@H](c2cccc(C)c2)C2CCN(S(C)(=O)=O)CC2)CC1		
22		1.6	CCN(C(=O)Cc1ccc(S(C)(=O)=O)cc1)C1CCN(CC[C@@H](c2cc(F)cc(Cl)c2)C2CCN(S(C)(=O)=O)CC2)CC1		
> 150	< 0.1	1.9	CCN(C(=O)Cc1ccc(S(C)(=O)=O)cc1)C1CCN(CC[C@@H](c2cc(C)cc(C)c2)C2CCN(S(C)(=O)=O)CC2)CC1		
32	0.55	1.8	CCN(C(=O)Cc1ccc(S(C)(=O)=O)cc1)C1CCN(CC[C@@H](c2cccc(Cl)c2)C2CCN(S(C)(=O)=O)CC2)CC1	7900	
17	3.5	1.9	CCN(C(=O)Cc1ccc(S(C)(=O)=O)cc1)C1CCN(CC[C@@H](c2cccc(C(F)(F)F)c2)C2CCN(S(C)(=O)=O)CC2)CC1	7900	
	< 0.1	2.6	CCN(C(=O)Cc1ccc(S(C)(=O)=O)cc1)C1CCN(CC[C@@H](c2cc(Cl)cc(Cl)c2)C2CCN(S(C)(=O)=O)CC2)CC1	6500	
